Data published in patent US10654814B2, “Bicyclic hydroxamic acids useful as inhibitors of mammalian histone deacetylase activity” (KANCERA AB, priority 2015, dated 2020).
Where a name gives a salt, the structure may show the parent alone.

The compounds below were run against HDAC6 (Homo sapiens (Human), UniProt Q9UBN7) (assay: HDAC6 in vitro enzymatic assay (fluorescence)). Settings: Table 3; read-out: IC50 (nM) for inhibition of HDAC6.
Format: biochemical
Method: Biological Tests Method for Measurement of Enzymatic Activity of HDACs Materials & Methods
All Examples were tested in HDAC1,2,3,6 and 8 in vitro enzymatic assays. The assay principle is well known (Hauser et al. 2009, Bradner et al. 2010) and all necessary reagents like enzymes, substrates, developer and reference compounds are commercially available (see e.g. BPS Biosciences http://www.bpsbioscience.com/). Stock solutions (10 mM in DMSO) of compounds were serially diluted 1:3 in 11 concentrations with a top concentration of 200 μM for HDAC1,2,3 and 2 μM for HDAC6 and HDAC8. The enzymatic reactions were conducted in a mixture containing assay buffer, bovine serum albumin, HDAC substrate, and a test compound. After enzymatic reaction, developer was added and after an additional incubation time, fluorescence intensity was measured at an excitation wavelength of 360 nm and an emission wavelength of 460 nm. All experiments were performed in duplicate.

Sequence of HDAC6 (Q9UBN7 whole entry): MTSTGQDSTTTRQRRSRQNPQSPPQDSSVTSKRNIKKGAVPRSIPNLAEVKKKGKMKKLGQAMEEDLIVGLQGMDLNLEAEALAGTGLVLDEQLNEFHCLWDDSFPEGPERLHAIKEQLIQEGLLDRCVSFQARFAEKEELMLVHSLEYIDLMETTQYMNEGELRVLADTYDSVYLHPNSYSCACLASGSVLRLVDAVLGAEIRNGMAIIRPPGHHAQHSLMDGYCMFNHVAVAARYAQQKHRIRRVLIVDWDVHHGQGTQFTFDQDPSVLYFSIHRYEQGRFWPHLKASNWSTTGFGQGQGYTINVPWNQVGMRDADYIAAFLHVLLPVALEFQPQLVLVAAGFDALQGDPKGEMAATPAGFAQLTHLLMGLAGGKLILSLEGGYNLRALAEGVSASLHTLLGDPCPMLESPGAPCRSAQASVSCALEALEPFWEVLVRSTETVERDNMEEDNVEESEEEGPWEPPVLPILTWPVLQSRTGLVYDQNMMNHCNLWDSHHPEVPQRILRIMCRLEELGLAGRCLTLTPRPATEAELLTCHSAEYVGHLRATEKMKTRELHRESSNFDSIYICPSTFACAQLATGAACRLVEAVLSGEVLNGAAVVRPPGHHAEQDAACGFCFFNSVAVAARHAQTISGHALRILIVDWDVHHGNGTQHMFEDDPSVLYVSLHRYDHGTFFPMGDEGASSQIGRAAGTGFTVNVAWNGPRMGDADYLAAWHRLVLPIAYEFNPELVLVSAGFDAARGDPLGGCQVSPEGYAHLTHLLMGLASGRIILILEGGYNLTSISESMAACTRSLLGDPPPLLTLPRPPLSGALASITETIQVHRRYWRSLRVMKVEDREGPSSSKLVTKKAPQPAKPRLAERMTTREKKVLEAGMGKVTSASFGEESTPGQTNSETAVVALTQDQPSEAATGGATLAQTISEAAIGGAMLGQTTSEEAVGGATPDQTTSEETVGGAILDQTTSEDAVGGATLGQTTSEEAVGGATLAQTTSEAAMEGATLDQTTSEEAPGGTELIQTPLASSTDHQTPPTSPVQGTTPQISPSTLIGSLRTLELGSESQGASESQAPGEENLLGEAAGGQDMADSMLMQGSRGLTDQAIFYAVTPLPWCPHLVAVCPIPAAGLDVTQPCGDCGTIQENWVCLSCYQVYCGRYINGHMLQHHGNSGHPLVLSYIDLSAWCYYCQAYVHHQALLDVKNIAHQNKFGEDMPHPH

Going from Cc1ncccc1-c1nc2cc(C(=O)NO)ccc2o1 [Example 40, N-Hydroxy-2-(2-methylpyridin-3-yl)-1,3-benzoxazole-5-carboxamide trifluoroacetate] to O=C(NO)c1ccc2oc(-c3cccc(O)c3)nc2c1 [Example 220, N-hydroxy-2-(3-hydroxyphenyl)-1,3-benzoxazole-5-carboxamide], the IC50 falls from 54 nM to 32 nM (1.7-fold).

First: CC(C)c1ccc(-c2nc3cc(C(=O)NO)cnc3o2)cc1 [Example 83, N-Hydroxy-2-[4-(1-methylethyl)phenyl][1,3]oxazolo[5,4-b]pyridine-6-carboxamide]
Second: CC(C)c1ccc(-c2cc3ncc(C(=O)NO)cc3s2)cc1 [Example 110, N-Hydroxy-2-[4-(1-methylethyl)phenyl]thieno[3,2-b]pyridine-6-carboxamide]
The IC50 of the first is 2-fold lower: 25 nM for the first, 50 nM for the second.

First: O=C(NO)c1ccc2nc(N3CCN(c4ccc(F)cc4)CC3)[nH]c2c1 [Example 126, 2-(4-(4-fluorophenyl)piperazin-1-yl)-N-hydroxy-1H-benzo[d]imidazole-6-carboxamide]
Second: O=C(NO)c1ccc2oc(-c3ccc(CN4CCN(c5ccncc5)CC4)cc3)nc2c1 [Example 209, N-hydroxy-2-{4-[(4-pyridin-4-ylpiperazin-1-yl)methyl]phenyl}-1,3-benzoxazole-5-carboxamide trifluoroacetate]
The IC50 of the first is 2.4-fold higher: 85 nM for the first, 35 nM for the second.

Going from O=C(NO)c1ccc2oc(Nc3cccc(OCc4ccccc4)c3)nc2c1 [Example 47, 2-{[3-(benzyloxy)phenyl]amino}-N-hydroxy-1,3-benzoxazole-5-carboxamide] to O=C(NO)c1ccc2oc(Nc3cccc(-c4ccccc4)c3)nc2c1 [Example 230, 2-(biphenyl-3-ylamino)-N-hydroxy-1,3-benzoxazole-5-carboxamide], the IC50 falls from 31 nM to 7 nM (4.4-fold).

O=C(NO)c1ccc2sc(CN3CCCCC3)nc2c1 [Example 273, N-Hydroxy-2-(piperidin-1-ylmethyl)-1,3-benzothiazole-5-carboxamide] and O=C(NO)c1ccc2oc(-c3ccc(-c4ccc(CN5CCCCC5)cc4)cc3)nc2c1 [Example 30, N-Hydroxy-2-[4′-(piperidin-1-ylmethyl)biphenyl-4-yl]-1,3-benzoxazole-5-carboxamide trifluoroacetate] are within 1.5-fold of each other in IC50: 16 nM for the first, 14 nM for the second.

First: O=C(NO)c1ccc2oc(NCc3ccc(-c4ccccc4)cc3)nc2c1 [Example 234, 2-[(biphenyl-4-ylmethyl)amino]-N-hydroxy-1,3-benzoxazole-5-carboxamide]
Second: O=C(NO)c1ccc2oc(-c3ccc(-c4ccccc4)cc3F)nc2c1 [Example 173, 2-(3-Fluorobiphenyl-4-yl)-N-hydroxy-1,3-benzoxazole-5-carboxamide]
The IC50 of the first is 5-fold lower: 4 nM for the first, 20 nM for the second.

Compared with O=C(NO)c1ccc2oc(-c3ccccc3)nc2c1 [Example 7, N-hydroxy-2-phenyl-1,3-benzoxazole-5-carboxamide], O=C(NO)c1ccc2oc(-c3cccc(Br)c3)nc2c1 [Example 16, 2-(3-bromophenyl)-N-hydroxy-1,3-benzoxazole-5-carboxamide] is 2.1-fold lower in IC50: 15 nM for the first, 7 nM for the second. The second is the more potent here.

First: COc1ccc(F)cc1-c1cc2cc(C(=O)NO)ccc2s1 [Example 106, 2-(5-fluoro-2-methoxyphenyl)-N-hydroxy-1-benzothiophene-5-carboxyamide]
Second: COc1ccc(-c2cc3cc(C(=O)NO)ccc3s2)cc1 [Example 93, N-hydroxy-2-(4-methoxyphenyl)-1-benzothiophene-5-carboxamide]
The IC50 of the first is 9.6-fold higher: 86 nM for the first, 9 nM for the second. The second is the more potent here.

Going from O=C(NO)c1ccc2sc(Cc3ccc(-c4ccncc4)cc3)nc2c1 [Example 272, N-Hydroxy-2-(4-pyridin-4-ylbenzyl)-1,3-benzothiazole-5-carboxamide trifluoroacetate] to O=C(NO)c1ccc2oc(-c3ccc(-c4ccncc4)cc3)nc2c1 [Example 22, N-hydroxy-2-(4-pyridin-4-ylphenyl)-1,3-benzoxazole-5-carboxamide], the IC50 rises from 6 nM to 13 nM (2.2-fold). The first is the more potent here.

First: COc1cccc2cc(-c3nc4cc(C(=O)NO)ccc4s3)oc12 [Example 81, N-Hydroxy-2-(7-methoxy-1-benzofuran-2-yl)-1,3-benzothiazole-5-carboxamide]
Second: COc1ccc(-c2nc3cc(C(=O)NO)ccc3s2)cc1 [Example 78, N-hydroxy-2-(4-methoxyphenyl)-1,3-benzothiazole-5-carboxamide]
The IC50 of the first is 2.8-fold higher: 33 nM for the first, 12 nM for the second.

First: C[C@@H]1CN(Cc2ccc(-c3nc4cc(C(=O)NO)ccc4o3)cc2)C[C@H](C)O1 [Example 207, 2-(4-{[(cis)-2,6-dimethylmorpholin-4-yl]methyl}phenyl)-N-hydroxy-1,3-benzoxazole-5-carboxamide trifluoroacetate]
Second: COc1ccc(-c2nc3cc(C(=O)NO)ccc3o2)cc1 [Example 11, N-hydroxy-2-(4-methoxyphenyl)-1,3-benzoxazole-5-carboxamide]
The IC50 of the first is 9.1-fold higher: 73 nM for the first, 8 nM for the second.

Compared with O=C(NO)c1ccc2oc(-c3ccc(N4CCOCC4)nc3)nc2c1 [Example 15, N-hydroxy-2-(6-morpholin-4-ylpyridin-3-yl)-1,3-benzoxazole-5-carboxamide], O=C(NO)c1ccc2oc(-c3ccc4c(c3)OCCO4)nc2c1 [Example 219, 2-(2,3-Dihydro-1,4-benzodioxin-6-yl)-N-hydroxy-1,3-benzoxazole-5-carboxamide] is 1.6-fold higher in IC50: 28 nM for the first, 44 nM for the second. The first is the more potent here.

Compared with Cc1noc(C)c1-c1ccc(-c2nc3cc(C(=O)NO)ccc3o2)cc1 [Example 181, 2-[4-(3,5-dimethylisoxazol-4-yl)phenyl]-N-hydroxy-1,3-benzoxazole-5-carboxamide], O=C(NO)c1ccc2oc(-c3ccc(-c4cccnc4)cc3)nc2c1 [Example 23, N-hydroxy-2-(4-pyridin-3-ylphenyl)-1,3-benzoxazole-5-carboxamide] is 2.8-fold lower in IC50: 31 nM for the first, 11 nM for the second. The second is the more potent here.

Going from CS(=O)(=O)c1ccc(-c2ccc(-c3nc4cc(C(=O)NO)ccc4o3)cc2)cc1 [Example 180, N-hydroxy-2-[4′-(methylsulfonyl)biphenyl-4-yl]-1,3-benzoxazole-5-carboxamide] to N#Cc1ccc(-c2nc3cc(C(=O)NO)ccc3o2)cc1 [Example 36, 2-(4-Cyanophenyl)-N-hydroxy-1,3-benzoxazole-5-carboxamide], the IC50 rises from 8 nM to 56 nM (7-fold).

Going from O=C(NO)c1ccc2cc(-c3cccc(O)c3)oc2c1 [Example 284, N-hydroxy-2-(3-hydroxypheny)-1-benzofuran-6-carboxamide] to O=C(NO)c1ccc2cc(CO)oc2c1 [Example 119, N-hydroxy-2-(hydroxymethyl)-1-benzofuran-6-carboxamide], the IC50 rises from 4 nM to 74 nM (18-fold). The first is the more potent here.

Cn1cc(-c2cc3cc(C(=O)NO)ccc3s2)cn1 [Example 99, N-hydroxy-2-(1-methyl-1H-pyrazol-4-yl)-1-benzothiophene-5-carboxamide] and O=C(NO)c1ccc2sc(-c3ccc4[nH]ccc4c3)cc2c1 [Example 95, N-hydroxy-2-(1H-indol-5-yl)-1-benzothiophene-5-carboxamide] are within 1.5-fold of each other in IC50: 16 nM for the first, 22 nM for the second.

Compared with O=C(NO)c1ccc2oc(-c3ccc4[nH]nnc4c3)nc2c1 [Example 39, 2-(1H-Benzotriazol-5-yl)-N-hydroxy-1,3-benzoxazole-5-carboxamide], COc1ccc(-c2nc3ccc(C(=O)NO)cc3o2)cc1 [Example 52, N-hydroxy-2-(4-methoxyphenyl)-1,3-benzoxazole-6-carboxamide] is 1.5-fold lower in IC50: 26 nM for the first, 17 nM for the second.

Compared with Cn1c(N2CCc3ccccc3C2)nc2cc(C(=O)NO)ccc21 [Example 145, 2-(3,4-dihydroisoquinolin-2(1H)-yl)-N-hydroxy-1-methyl-1H-benzo[d]imidazole-5-carboxamide], Cn1c(NCCc2ccccc2)nc2cc(C(=O)NO)ccc21 [Example 140, N-hydroxy-1-methyl-2-(phenethylamino)-1H-benzo[d]imidazole-5-carboxamide] is 4.2-fold lower in IC50: 42 nM for the first, 10 nM for the second.

Going from CC(C)(C)c1ccc(OCc2cc3cc(C(=O)NO)ccc3o2)cc1 [Example 163, 2-[(4-tert-Butylphenoxy)methyl]-N-hydroxy-1-benzofuran-5-carboxamide] to CC(C)(C)c1ccc(-c2nc3ccc(C(=O)NO)cc3o2)cc1 [Example 51, 2-(4-tert-butylphenyl)-N-hydroxy-1,3-benzoxazole-6-carboxamide], the IC50 falls from 58 nM to 22 nM (2.6-fold). The second is the more potent here.

Going from CC(C)c1ccc(NCc2nc3cc(C(=O)NO)ccc3s2)cc1 [Example 275, N-Hydroxy-2-({[4-(1-methylethyl)phenyl]amino}methyl)-1,3-benzothiazole-5-carboxamide] to CC(C)c1ccc(Nc2nc3cc(C(=O)NO)ccc3n2C)cc1 [Example 138, N-hydroxy-2-((4-isopropylphenyl)amino)-1-methyl-1H-benzo[d]imidazole-5-carboxamide], the IC50 rises from 8 nM to 22 nM (2.8-fold). The first is the more potent here.

Going from O=C(NO)c1ccc2oc(NCCc3ccccc3)nc2c1 [Example 45, N-hydroxy-2-[(2-phenylethyl)amino]-1,3-benzoxazole-5-carboxamide] to O=C(NO)c1ccc2oc(Nc3ccccc3)nc2c1 [Example 42, N-Hydroxy-2-(phenylamino)-1,3-benzoxazole-5-carboxamide], the IC50 falls from 21 nM to 14 nM (1.5-fold). The second is the more potent here.

Compared with Cn1c(Nc2cccc(OCc3ccccc3)c2)nc2cc(C(=O)NO)ccc21 [Example 142, 2-((3-(benzyloxy)phenyl)amino)-N-hydroxy-1-methyl-1H-benzo[d]imidazole-5-carboxamide], COc1ccc(CN(CCN(C)C)c2nc3cc(C(=O)NO)ccc3o2)cc1OC [Example 244, 2-{(3,4-dimethoxybenzyl)[2-(dimethylamino)ethyl]amino}-N-hydroxy-1,3-benzoxazole-5-carboxamide trifluoroacetate] is 63-fold higher in IC50: 1 nM for the first, 63 nM for the second.
